For test [1], the target named is T1, ARNT PAS-B (aryl hydrocarbon receptor nuclear translocator) (Homo sapiens, UniProt P27540, Y456T).
T1 construct: PAS-B domain, residues 356–470 (with N-terminal GAMD cloning artifact)
Briefly: […]/1H HSQC NMR titration ([…]/1H HSQC titration also gave Kd […]). The test is classed as binding.

Test [2] concerns the target T1, ARNT PAS-B (aryl hydrocarbon receptor nuclear translocator). As to the kind of experiment: […]/1H HSQC NMR titration (L391 δ[…] methyl). The test is classed as binding.

T1 sequence (P27540 356-470 Y456T): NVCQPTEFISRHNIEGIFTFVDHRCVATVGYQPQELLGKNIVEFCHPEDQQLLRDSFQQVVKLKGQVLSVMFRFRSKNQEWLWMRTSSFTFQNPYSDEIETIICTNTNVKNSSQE

The term Kd denotes the equilibrium constant for the complex coming apart. Lower therefore signals a tighter complex. `FC(F)(F)c1cc(-c2nn[nH]n2)cc(C(F)(F)F)c1` [KG-548, 5-(3,5-bis(trifluoromethyl)phenyl)tetrazole] came in with an equilibrium dissociation constant (Kd) in test [1] of 0.684 ± 0.0331 mM.

`Oc1cc(C(F)(F)F)cc(C(F)(F)F)c1` [KG-655, 3,5-bis(trifluoromethyl)phenol]: the affinity in test [2], expressed as Kd, was 1.95 ± 0.152 mM.

The record behind these values is PMC9119131, “Fragile protein folds: sequence and environmental factors affecting the equilibrium of two interconverting, stably folded protein conformations” (Magnetic resonance, 2021).
